“Also recorded” adds a separate entry of the source.
Legend:
[1] = test system: humoral response to HBsAg (anti-HBsAg antibodies); experiment: Humoral response (anti-HBsAg antibody titers by ELISA) in mice immunized i.m. with HBsAg plus adjuvant; type: in vivo, BALB/c mice; settings: for mean anti-HBsAg titer: 3 weeks post-immunization, approx. 18 nmol compound per mouse with alum and 1 μg HBsAg (FIG. 4); for speed of immune response vs alum control: titers at 2 to 3 weeks, p<0.05, approx. 18 nmol per mouse with alum
Procedure: Immunization with HBsAg was conducted on groups of (n=4 or 5) 6- to 8-week old female BALB/c mice (Harlan) as described in, Davis et al., 1996. Each solution contained 1 μg recombinant HBsAg protein (ayw subtype; Genzyme) in a total volume of 50 μl, and 25 μl of each antigen solution was injected into both the left and right tibialis anterior muscles. […] This is the same ratio as used in the commercial hepatitis B vaccines (Davis et al., 1996). […] (Oligonucleotide 1826, previously described in Davis et al., 1996, contains a nuclease-resistant phosphorothioate modified backbone).
The ELISA method was used to evaluate the immune response to a combination of ppGpp and pppGpp and the immune response to ppGpp alone. Kinetics and magnitude of the immune response generated by the nucleotide ppGpp versus an oligonucleotide containing CpG were also determined from the data generated by ELISA. For the isotyping ELISAs the Immunopure Monoclonal Antibody Isotyping Kit I (HRP/ABTS) from Pierce was modified and used.
For measuring humoral response to HBsAg blood was recovered from mice by tail vein bleeds at various times after immunization. The blood was clotted at room temperature for >2 hours, and centrifuged twice at 13 krpm for 10 minutes to separate the serum. Antibodies specific to HBsAg were detected by ELISA, and were quantified relative to a monoclonal antibody against HBsAg (IgG1, 10^10 affinity constant, ad+ay; Genzyme). A solid phase of recombinant HBsAg protein (100 μl of 1 μg/ml per well, overnight at 4° C.) was used to capture anti-HBsAg in the plasma (overnight at 4° C.), which was then detected with HRP-conjugated rabbit anti-mouse IgG+IgM. (1:10,000 in PBS/0.1% Tween/2% BSA; 100 μl per well; Pierce), followed by the sequential addition of 3 3′,5,5′-tetramethylbenzidine solution (50 μl/well, 10 minutes at room temperature; Calbiochem) and 0.25M HCl (50 μl/well). Absorbance was measured at 450 nm within 10 minutes of adding the final reagent. Anti-HB titers are expressed as group means +/−standard error (SE) of individual animals values, which are in turn averages of triplicate assays.

[2] = Tolerability / signs of toxicity in immunized mice; type: in vivo; settings: up to 250 μg ppGpp per mouse i.m.

SMILES | adjuvant effect on humoral response ([1]; 10 μg (18 nmol) GTP with alum and HBsAg (FIG. 4E)) | effect upon the humoral response ([1]; 2 μg ppGpp plus alum (FIG. 3C)) | effect upon the humoral response ([1]; 50 μg ppGpp plus alum (FIG. 3E)) | effect upon the humoral response ([1]; 250 μg ppGpp plus alum (FIG. 3F vs 3B)) | mean anti-HBsAg titer [1] | anti-HBsAg titer, ppGpp group vs alum group ([1]; 4 weeks post-immunization, ppGpp 10 μg plus alum (FIG. 3B vs 3D)) | anti-HBsAg titer, ppGpp group vs alum group ([1]; 6 weeks post-immunization, ppGpp 10 μg plus alum) | maximal anti-HBsAg titer level ([1]; 10 weeks post-immunization, HBsAg plus alum, ppGpp 10 μg) | time course of humoral response, ppGpp vs unmethylated CpG oligonucleotide (oligo 1826) ([1]; ppGpp 10 μg vs oligo 10 μg, with alum (FIG. 5)) | effect of natural ppGpp vs predicted response of natural CpG oligonucleotide ([1]; predicted response, dotted line of FIG. 5) | speed of immune response vs alum control [1] | optimal dosage per mouse ([1]; titration 2, 10, 50, 250 μg ppGpp with alum and 1 μg HBsAg (FIGS. 3C-3F)) | mean ELISA titer of anti-HBsAg antibodies ([1]; two weeks after injection, HBsAg plus alum, ppGpp 10 μg, p=0.04 (FIG. 3B, 3D)) | tolerability / signs of toxicity (ruffling of fur, diarrhea) [2]
Nc1nc2c(ncn2[C@@H]2O[C@H](COP(=O)(O)OP(=O)(O)OP(=O)(O)O)[C@@H](O)[C@H]2O)c(=O)[nH]1 [GTP, reference compound] | modest at best |  |  |  |  |  |  |  |  |  |  |  |  | 
Nc1nc2c(ncn2[C@@H]2O[C@H](COP(=O)(O)OP(=O)(O)O)[C@@H](OP(=O)(O)OP(=O)(O)O)[C@H]2O)c(=O)[nH]1 [ppGpp, Guanosine 5′-diphosphate 2′(3′)-diphosphate] |  | did not have a significant effect | did not have a significant effect | appeared to suppress the alum-induced adjuvant effect | 161 ± 42 ng/mL | trend was still present | comparable titer levels | 2316 ± 1764 ng/mL | did not appear to differ | much greater effect | more rapid immune response | 10 µg | 83 ± 37 ng/mL | well tolerated; also recorded: no signs of toxicity were observed
Nc1nc2c(ncn2[C@@H]2O[C@H](COP(=O)(O)OP(=O)(O)OP(=O)(O)O)[C@@H](OP(=O)(O)OP(=O)(O)O)[C@H]2O)c(=O)[nH]1 [pppGpp, Guanosine 5′-triphosphate 2′(3′)-diphosphate] |  |  |  |  | 136 ± 33 ng/mL |  |  |  |  |  | more rapid immune response |  |  | 
